Values of other authors, collected in US20130146496A1, “SOLID PHARMACEUTICAL FORMULATIONS OF RAMIPRIL AND AMLODIPINE BESYLATE, AND THEIR PREPARATION” (priority 2010, published 2013).

Columns and labels:
[1] = in vivo

In the case of CCOC(=O)C1=C(COCCN)NC(C)=C(C(=O)OC)C1c1ccccc1Cl (racemic) [Amlodipine besylate, 3-ethyl-5-methyl-(+-)-2-[(2-aminoethoxy)methyl]-4-(2-chlorophenyl)-1,4-dihydro-6-methylpyridine-3,5-dicarboxylate], the solubility in water is listed as “slightly soluble” and the absolute bioavailability [1] is listed as 64-90%.
